Several values for one entry are separate records, joined by “and”; a condition that tells them apart may be missing. Equal entries are not always repeated. Where two headings read alike, the source gives them in different places.
Assays:
hsMTHFRCD-RD [1] = target: T1, hsMTHFRCD-RD (Homo sapiens, UniProt P42898); test: MIDAS protein-metabolite interactomics (equilibrium dialysis FIA-MS), CD-RD construct; assay type: binding; details: Fig. 2B
T1 construct: encompassing just the CD and RD (amino acids 38–644; hsMTHFRCD-RD); made in house
Protocol: (§1) Protein–metabolite interactomics using an updated MIDAS screening platform was performed as reported previously. Briefly, a flow-injection analysis mass-spectrometry (FIA-MS) method utilising a validated library of 400 metabolite standards was combined into four unique and defined screening pools in 150 mM ammonium acetate pH 7.4. For each metabolite pool, 8 μl of hsMTHFRCD-RD (542 μM) or hsMTHFRRD (240 μM) protein was arrayed in triplicate across a SWISSCI 10 MWC 96-well microdialysis plate (protein chambers). To the trans side of each dialysis well, 300 μl of a metabolite pool (50 μM per metabolite) was arrayed in triplicate for each target protein (metabolite chambers). Dialysis plates were placed in the dark at 4 °C on a rotating shaker (150 rev min−1) and incubated for 40 h. Post-dialysis, protein- and metabolite-chamber dialysates were normalized and diluted 1:10 in 80% methanol, incubated for 30 min on ice, and centrifuged at 3200 RCF for 15 min to remove precipitated protein. Metabolite pool analytes were arrayed across a 384-well microvolume plate and placed at 4 °C in a Shimadzu SIL-20ACXR autosampler for FIA-MS metabolomics analysis. 2 μl of each sample was analysed in technical triplicate by FIA-MS on a SCIEX X500R QTOF MS with interspersed injections of blanks.
FIA-MS spectra from MIDAS protein–metabolite interactomics was qualitatively and quantitatively processed in SCIEX OS 1.6 software to determine relative metabolite abundance by integrating the mean area under the extracted-ion chromatogram curve across technical triplicates. Log2 (fold change) for each metabolite was calculated from the relative metabolite abundance in the protein chamber (numerator) and metabolite chamber (denominator) from dialysis triplicates. For each technical triplicate, up to one outlier was removed using a z-score cutoff of five (<0.1% of observations). The corrected technical replicates were collapsed to one mean fold-change summary per protein–metabolite pair. To remove fold-change variation that was not specific to a given metabolite–protein pair, the first three principal components of the total MIDAS dataset were removed (∼75% of observed variance) creating Log2 (corrected fold change). Protein–metabolite z-scores were determined by comparing the target protein–metabolite Log2 (corrected fold change) to a no-signal model for that metabolite using measures of the central tendency (median) and standard deviation (extrapolated from the 25–75% quantiles) which are not biased by the signals in the tails of a metabolite’s fold-change distribution. Z-scores were controlled for false-discovery rate using Storey’s q value (http://github.com/jdstorey/qvalue). Protein–metabolite interactions with p-values < 0.05 and q-values < 0.1 were considered significant.

hsMTHFRRD [2] = target: T2, hsMTHFRRD (Homo sapiens, UniProt P42898); test: Surface plasmon resonance, regulatory domain; assay type: binding; details: SPR, steady state affinity fit, read-out: Kd (dissociation constant)
T2 construct: encompassing the RD and part of the linker region (amino acids 348–656; hsMTHFRRD); made in house
T2 sequence (P42898 348-656): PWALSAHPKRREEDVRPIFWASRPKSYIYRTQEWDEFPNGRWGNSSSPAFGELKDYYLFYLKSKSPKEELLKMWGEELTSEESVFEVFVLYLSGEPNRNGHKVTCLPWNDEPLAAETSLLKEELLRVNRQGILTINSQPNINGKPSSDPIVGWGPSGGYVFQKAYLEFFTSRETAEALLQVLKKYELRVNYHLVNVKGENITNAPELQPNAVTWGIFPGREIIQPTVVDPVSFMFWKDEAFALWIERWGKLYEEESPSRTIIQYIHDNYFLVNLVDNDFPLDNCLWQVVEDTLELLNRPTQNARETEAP
Protocol: (§2) For determination of the affinity between hsMTHFRCD-RD and (S)-SKI-72, 30 μg of hsMTHFRCD-RD was immobilized onto Sensor Chip CM5 sensor (series S) to a density of 7500 RU via the protein –NH2 groups employing 1-Ethyl-3-(3-dimethylaminoproppyl)carbodiimide crosslinker (EDC) and N-hydroxysuccinimide (NHS) in acetate buffer pH 4.0. For the binding experiment, (S)-SKI-72 was serially diluted (1:1) from 6.25 μM to 0.05 μM in 20 mM HEPES pH 7.5, 150 mM NaCl, 0.5 mM TCEP, 0.05% TWEEN-20, 5% DMSO and subsequently injected at a 30 μL/min flow rate over the sensor. […] For the binding experiment, (S)-SKI-72 was serially diluted from 12.5 μM to 0.012 μM and AdoMet was serially diluted from 25 μM to 0.19 μM and subsequently injected at a 30 μL/min flow rate over the sensor. Data were analysed using the Biacore S200 Evaluation Software.

[3] = design: method as in PMID 31657716; details: cited from earlier work
hsMTHFRRD [4] = target: T2, hsMTHFRRD; test: Differential scanning fluorimetry binding assay; details: up to 250 μM compound, 0.1 mg ml^−1 hsMTHFRRD
Protocol: Differential scanning fluorimetry was used to assay shifts in melting temperature caused by ligand binding in a 96-well PCR plate using an LC480 light cyler (Roche). Each well (20 μl) consisted of hsMTHFRRD protein (0.1 mg ml^−1), SYPRO-Orange (Invitrogen) diluted 1000X, and buffer (10 mM HEPES pH 7.5, 500 mM NaCl) in the presence of 0–250 μM AdoMet, AdoHcy or analogue compounds. Analogue compounds were part of a AdoMet library consisting of 162 synthetic analogues of adenosine scaffolds which were compiled from the SGC’s compound collection.

[5] = target: T3, endogenous MTHFR from HEK293 cell lysate (Homo sapiens, UniProt P42898); test: MTHFR enzyme activity assay in HEK293 cell lysate; assay type: biochemical; details: for Ki: n = 3
T3 construct: Remaining activity of endogenous MTHFR from HEK293 cell lysate; host or cells: HEK293
Protocol: (§3) All enzymatic assays were performed using the physiological forward assay described by Suormala et al.. For (S)-SKI-72 inhibition in […] (ATCC: CRL-3216) cell lysates, the assay was performed with the modifications described by Rummel et al. and Burda et al.. For (S)-SKI-73 inhibition of intact HEK293 cells, 300,000 cells/well of a 6-well plate were allowed to settle overnight. The next day, media containing Dulbecco’s Modified Eagle Medium (Gibco) supplemented with 10% fetal bovine serum (Gibco) and 1% antibiotic/antimycotic (Gibco) was exchanged to fresh media of the same composition plus the indicated concentration of (S)-SKI-73. Following incubation for 12 or 48 h, cells were harvested, lysed and assayed as previously described. Assay of hsMTHFRFL was performed as described. Purified AdoMet was used for inhibition. Sinefungin was purchased from Sigma-Aldrich (Cat# S8559). The Ki for each compound was estimated following a plot of inhibitor versus response and a four-parameter curve fit as performed by GraphPad Prism (v8.00).

hsMTHFRCD-RD [6] = target: T1, hsMTHFRCD-RD; test: Surface plasmon resonance, CD-RD construct; assay type: binding; details: SPR, read-out: Kd (dissociation constant)
Protocol: as §2

hsMTHFRFL = target: T4, hsMTHFRFL (Homo sapiens, UniProt P42898); test: MTHFR enzyme activity assay (physiological forward assay), purified enzyme; assay type: biochemical; details: for Ki: four-parameter curve fit, n = 3
T4 construct: encompassing the full-length (amino acids 1–656; hsMTHFRFL); made in house
Protocol: as §3

hsMTHFRRD [7] = target: T2, hsMTHFRRD; test: MIDAS protein-metabolite interactomics (equilibrium dialysis FIA-MS), regulatory domain alone; assay type: binding; details: Fig. 2C
Protocol: as §1, with “Post-dialysis, protein- and metabolite-chamber dialysates were normalized and diluted 1:10 in 80% methanol, incubated for 30 min on ice, and centrifuged at 3200 RCF for 15 min to remove precipitated protein. Metabolite pool analytes were arrayed across a 384-well microvolume plate and placed at 4 °C in a Shimadzu SIL-20ACXR autosampler for FIA-MS metabolomics analysis.” left out
FIA-MS spectra from MIDAS protein–metabolite interactomics was qualitatively and quantitatively processed in SCIEX OS 1.6 software to determine relative metabolite abundance by integrating the mean area under the extracted-ion chromatogram curve across technical triplicates. Log2 (fold change) for each metabolite was calculated from the relative metabolite abundance in the protein chamber (numerator) and metabolite chamber (denominator) from dialysis triplicates. […]

T3 sequence (P42898 whole entry): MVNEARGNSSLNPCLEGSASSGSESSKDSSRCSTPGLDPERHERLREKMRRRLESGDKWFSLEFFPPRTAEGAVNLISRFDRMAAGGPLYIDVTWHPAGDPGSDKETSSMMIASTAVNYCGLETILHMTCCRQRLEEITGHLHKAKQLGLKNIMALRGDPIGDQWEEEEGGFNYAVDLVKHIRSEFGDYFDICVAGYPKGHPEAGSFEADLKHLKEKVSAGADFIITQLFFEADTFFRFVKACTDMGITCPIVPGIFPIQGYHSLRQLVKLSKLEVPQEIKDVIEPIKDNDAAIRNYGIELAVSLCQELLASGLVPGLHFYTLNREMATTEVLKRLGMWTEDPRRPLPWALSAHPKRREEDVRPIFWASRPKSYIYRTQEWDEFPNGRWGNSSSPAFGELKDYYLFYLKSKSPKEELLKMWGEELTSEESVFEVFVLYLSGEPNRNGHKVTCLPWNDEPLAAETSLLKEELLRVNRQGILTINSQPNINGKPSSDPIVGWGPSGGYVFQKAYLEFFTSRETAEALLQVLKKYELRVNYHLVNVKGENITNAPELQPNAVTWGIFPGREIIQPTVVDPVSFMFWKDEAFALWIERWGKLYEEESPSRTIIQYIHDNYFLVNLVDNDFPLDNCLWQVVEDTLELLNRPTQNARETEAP
T4 sequence (P42898 whole entry, the tested form may be a part): as the sequence (P42898 whole entry) above
T1 sequence (P42898 38-644): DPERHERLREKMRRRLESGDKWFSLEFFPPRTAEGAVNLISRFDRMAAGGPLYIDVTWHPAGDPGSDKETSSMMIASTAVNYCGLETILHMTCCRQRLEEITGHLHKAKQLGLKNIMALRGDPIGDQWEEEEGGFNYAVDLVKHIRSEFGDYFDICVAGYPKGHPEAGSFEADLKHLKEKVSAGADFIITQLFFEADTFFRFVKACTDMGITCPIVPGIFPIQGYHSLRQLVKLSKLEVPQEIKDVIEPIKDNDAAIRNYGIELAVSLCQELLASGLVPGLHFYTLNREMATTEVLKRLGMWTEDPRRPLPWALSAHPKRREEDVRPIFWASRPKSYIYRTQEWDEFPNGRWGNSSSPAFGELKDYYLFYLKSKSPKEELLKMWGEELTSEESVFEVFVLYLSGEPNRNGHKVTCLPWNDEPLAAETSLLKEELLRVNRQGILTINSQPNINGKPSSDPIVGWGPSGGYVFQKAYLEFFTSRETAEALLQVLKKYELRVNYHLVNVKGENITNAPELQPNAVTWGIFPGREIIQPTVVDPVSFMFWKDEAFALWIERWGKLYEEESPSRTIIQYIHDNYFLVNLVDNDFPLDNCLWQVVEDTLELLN

Nc1nc2c(c(=O)[nH]1)N(C=O)C(CNc1ccc(C(=O)N[C@@H](CCC(=O)O)C(=O)O)cc1)CN2 (stereo partly shown) [5-FTHF, 5-formyltetrahydrofolate]
MIDAS enrichment or depletion of metabolite (hsMTHFRCD-RD [1]): enriched

CN1c2c(nc(N)[nH]c2=O)NCC1CNc1ccc(C(=O)N[C@@H](CCC(=O)O)C(=O)O)cc1 (stereo partly shown) [5-MTHF, 5-methyltetrahydrofolate]
MIDAS enrichment or depletion of metabolite (hsMTHFRCD-RD [1]): depleted

COc1ccc(CCNC(=O)[C@@H](N)CC[C@H](CNCc2ccccc2)C[C@H]2O[C@@H](n3cnc4c(N)ncnc43)[C@H](O)[C@@H]2O)cc1 [(S)-SKI-72]
Kd (hsMTHFRRD [2]): 1.47 µM and 1.17 µM and 1.5 µM | membrane permeability [3]: poor | Tm shift (hsMTHFRRD [4]): approximately 10 °C | residual activity at the highest concentrations tested [5]: approximately 50% | Ki [5]: 3 ± 0.2 µM | Kd (hsMTHFRCD-RD [6]; as printed in Fig. 3A): 0.6 µM | Kd (hsMTHFRCD-RD [6]; steady state affinity fit): 0.612 µM and 0.596 µM | residual activity at high concentrations (hsMTHFRFL; purified hsMTHFRFL, even at high concentrations): ~30% | Ki (hsMTHFRFL; purified hsMTHFRFL): 0.78 ± 0.05 µM

Nc1ncnc2c1ncn2[C@@H]1O[C@H](CSCC[C@H](N)C(=O)O)[C@@H](O)[C@H]1O [AdoHcy, S-adenosylhomocysteine]
Tm shift (hsMTHFRRD [4]): ~7 °C | MIDAS enrichment or depletion of metabolite (hsMTHFRRD [7]): enriched | MIDAS enrichment or depletion of metabolite (hsMTHFRCD-RD [1]): enriched

C[S+](CC[C@H](N)C(=O)[O-])C[C@H]1O[C@@H](n2cnc3c(N)ncnc32)[C@H](O)[C@@H]1O (stereo partly shown) [AdoMet, S-adenosylmethionine]
Kd (hsMTHFRRD [2]): 4.3 µM and 1.06 µM | Tm shift (hsMTHFRRD [4]): approximately 4 °C | MIDAS enrichment or depletion of metabolite (hsMTHFRRD [7]): enriched | MIDAS enrichment or depletion of metabolite (hsMTHFRCD-RD [1]): enriched | Ki [5]: 8.2 µM and 6.8 µM | Ki (hsMTHFRFL; purified hsMTHFRFL): 5.8 ± 0.2 µM

Cc1cc2nc3c(=O)[nH]c(=O)nc-3n(C[C@H](O)[C@H](O)[C@H](O)COP(=O)(O)OP(=O)(O)OC[C@H]3O[C@@H](n4cnc5c(N)ncnc54)[C@H](O)[C@@H]3O)c2cc1C [FAD, flavin adenine dinucleotide]
MIDAS enrichment or depletion of metabolite (hsMTHFRCD-RD [1]): enriched

NC(=O)C1=CN([C@@H]2O[C@H](COP(=O)(O)OP(=O)(O)OC[C@H]3O[C@@H](n4cnc5c(N)ncnc54)[C@H](O)[C@@H]3O)[C@@H](O)[C@H]2O)C=CC1 [NADH]
MIDAS enrichment or depletion of metabolite (hsMTHFRCD-RD [1]): depleted

NC(=O)C1=CN([C@@H]2O[C@H](COP(=O)(O)OP(=O)(O)OC[C@H]3O[C@@H](n4cnc5c(N)ncnc54)[C@H](OP(=O)(O)O)[C@@H]3O)[C@@H](O)[C@H]2O)C=CC1 [NADPH]
MIDAS enrichment or depletion of metabolite (hsMTHFRCD-RD [1]): depleted

Nc1ncnc2c1ncn2[C@@H]1O[C@H](C[C@@H](N)CC[C@H](N)C(=O)O)[C@@H](O)[C@H]1O [Sinefungin, sinefungin]
effect on the activity of hsMTHFRFL (hsMTHFRFL; concentrations up to ∼100 μM, above that appeared to inhibit): no effect

Nc1nc(=O)c2nc(CNc3ccc(C(=O)N[C@@H](CCC(=O)O)C(=O)O)cc3)cnc2[nH]1 [folate]
MIDAS enrichment or depletion of metabolite (hsMTHFRCD-RD [1]): enriched

Reference: publication PMC8040968, “Identification of small molecule allosteric modulators of 5,10-methylenetetrahydrofolate reductase (MTHFR) by targeting its unique regulatory domain” (Biochimie, 2021)
